According to patent publication US12439921B2 (priority 2019, dated 2025):

Legend:
Format in all cases: in vivo
[1] = tested on: Heterodera glycines; assay: Heterodera glycines control test (in vitro); details: 10 ppm; second stage larvae; 2 days after addition; 25° C.
Experimental: Each well of a 24-well plate was charged with 1 mL of a chemical solution prepared to have a final concentration of 0.1% acetone and a predetermined concentration of the compound (1), in which 20 to 30 larvae of Heterodera glycines at the second stage were released and left to stand in the dark at 25° C. The number of surviving and moribund worms 2 days after the addition of the chemical solution was measured. In addition, the number of surviving and moribund worms in the untreated group not treating the compound (1) was measured in the same manner, and the corrected mortal worm rate was calculated by the following formula.
Corrected mortal worm rate (%)={(mortal worm rate of treated group−mortal worm rate of untreated group)/(100−mortal worm rate of untreated group)}×100

[2] = tested on: Meloidogyne incognita; assay: Meloidogyne incognita control test (soil irrigation); details: cucumber; soil irrigation 100 ppm, 3 mL; 21 days after inoculation
Experimental: Cucumber seeds were sown one by one in a 3 cm styrene cup filled with sterilized soil. After germination, 3 mL each of a chemical solution prepared with 10% acetone water was irrigated into the soil so that the compound (1) would be 100 ppm when irrigated into the soil. After 1 hour, 200 counts/mL of the second stage larval solution of Meloidogyne incognita were inoculated at 1 mL/pot. Then, 21 days after the inoculation, the degree of gall formation on the cucumber root was classified by a visual inspection based on the following 6-level gall formation degree criteria, and the gall index was calculated. In addition, the gall index, in the case of the treated group not treating the compound (1) (untreated), was also calculated in the same manner.
Gall index=(0×a+1×b+2×c+3×d+4×e+5×f)/((a+b+c+d+e+f)×5)×100 a: number of strains that meet the gall formation degree criteria of 0, b: number of strains that meet the gall formation degree criteria of 1, c: number of strains that meet the gall formation degree criteria of 2, d: number of strains that meet the gall formation degree criteria of 3, e: number of strains that meet the gall formation degree criteria of 4, and f: number of strains that meet the gall formation degree criteria of 5. […]

[3] = tested on: Cucumber seeds; assay: Cucumber phytotoxicity test (seed dressing); details: 0.5 mg/seed, 10 days after sowing; for Germination Count: sowing count 5
Experimental: Cucumber seeds were sown one by one in a 3 cm styrene cup filled with sterilized soil, where the seeds had been subjected to dressing treatment with a dressing dust presented in Formulation Example 1 or Formulation Example 2 so that the amount treated of the compound (1) or compound (2) would be a predetermined amount.
The germination rate was calculated 10 days after sowing. In addition, the germination rate was also calculated in the same manner for the case of sowing seeds treated with fluensulfone instead of Formulation Example 1 (compound (1)) or Formulation Example 2 (compound (2)) and for the case of sowing seeds treated with none of the compounds.

[4] = tested on: Meloidogyne incognita; assay: Meloidogyne incognita control test 1 (seed dressing); details: cucumber; seed dressing 0.5 mg/seed; 21 days after inoculation
Experimental: Cucumber seeds were sown one by one in a 3 cm styrene cup filled with sterilized soil, where the seeds had been subjected to dressing treatment with a dressing dust presented in Formulation Example 1 so that the amount treated of the compound (1) would be a predetermined amount. Then, 10 days after sowing, 200 counts/mL of the second stage larval solution of Meloidogyne incognita was inoculated at 1 mL for each seed. Then, 21 days after the inoculation, the degree of gall formation on the cucumber root was classified by a visual inspection based on the following 6-level gall formation degree criteria, and the gall index was calculated. In addition, the gall index was also calculated in the same manner for the case of sowing seeds treated with paraherquamide A instead of Formulation Example 1 (compound (1)) and for the case of sowing seeds treated with none of the compounds.
Gall index=(0×a+1×b+2×c+3×d+4×e+5×f)/((a+b+c+d+e+f) ×5)×100 • a: number of strains that meet the gall formation degree criteria of 0, b: number of strains that meet the gall formation degree criteria of 1, c: number of strains that meet the gall formation degree criteria of 2, d: number of strains that meet the gall formation degree criteria of 3, e: number of strains that meet the gall formation degree criteria of 4, and f: number of strains that meet the gall formation degree criteria of 5. […]

[5] = tested on: Ascaridia galli; assay: Ascaridia galli control test (in vitro); details: 50 ppm; 24 hours; 42° C.
Experimental: To 10 mL of a chemical solution prepared by using Ringer's solution so that the compound (1) or the compound (2) would have a predetermined concentration, 6 Ascaridia galli were introduced, and the solution was cultured in a water bath at 42° C. The number of surviving worms was counted 24 hours after the start of culture, and the mortal worm rate was calculated.

[6] = tested on: Hymenolepis diminuta; assay: Hymenolepis diminuta control test in infected rats; details: oral 20 mg/kg, 7 days after administration
Description: Rats were previously infected with Hymenolepis diminuta to prepare infected rats.

[7] = tested on: Bursaphelenchus xylophilus; assay: Bursaphelenchus xylophilus control test (cotton ball test method); design: key: Score 1: no influence on feeding (no effect); Score 2: feeding degree of 41% or more; Score 3: feeding degree of 21 to 40%; Score 4: feeding degree of 20% or less; Score 5: no feeding (great effect); details: 26° C., 5 days
Experimental: As a Bursaphelenchus xylophilus control test, the cotton ball test method was used to confirm the inhibitory effect on the proliferation of Bursaphelenchus xylophilus. […] The pressure was reduced in a desiccator for about 30 minutes, the solvent was removed by evaporation, and a test cotton ball was obtained. In addition, the gray mold as the test bacterium was cultured at 22° C. for 4 days in a Petri dish containing potato dextrose agar medium. Then, the test cotton ball was placed in the center of the Petri dish, and 1500 Bursaphelenchus xylophilus (100 μL of solution) were injected therein. This Petri dish was cultured at 26° C. for 5 days, and the feeding degree of the gray mold by Bursaphelenchus xylophilus was evaluated based on the following evaluation criteria. Further, evaluation was performed in the same manner when morantel was used instead of the compound (1) or (2).
Score 1: no influence on feeding (no effect)
Score 2: feeding degree of 41% or more
Score 3: feeding degree of 21 to 40%
Score 4: feeding degree of 20% or less
Score 5: no feeding (great effect)

[8] = tested on: wheat; assay: Wheat growth effect test; details: 3 days; for Plant Height Relative to Untreated: untreated = 100; for Plant Height: root immersion
Experimental: Each well of a 24-well plate was charged with 200 μL of a chemical solution prepared to have a final concentration of 10% acetone and a predetermined concentration of the compound (1), and the root of the sprouting wheat was immersed therein. Then, 3 days after the immersion, the plant height of the stems and leaves was measured to evaluate the effect of the compound (1) on the growth of wheat. In addition, the plant height of the stems and leaves was also measured for the case of sowing seeds not treated with the compound (1) (untreated). Note that Table 8 also presents the relative values of plant height (relative to untreated) when the untreated case was set to 100.

Compound	Germination Rate [3]	Germination Count [3]	Gall Index [4]	mortal worm rate [5]	control effect [6]	Score (feeding degree of the gray mold) ([7]; 20 μg/cotton ball, 200 ppm)	further results
C[C@H]1CC(=O)N2C[C@]34C[C@]5(CC(=O)N(C)C5=O)C(C)(C)[C@@H]3CC12C(=O)N4C [Compound (1), 16-keto-aspergillimide]	100%	5	8	0	no effect	1	corrected mortal worm rate [1]: 100%; Gall Index [2]: 0; Plant Height Relative to Untreated ([8]; 50 ppm): 106.1; Plant Height ([8]; 50 ppm): 9.87 cm; Plant Height Relative to Untreated ([8]; 100 ppm): 98.9; Plant Height ([8]; 100 ppm): 9.20 cm; Plant Height Relative to Untreated ([8]; 200 ppm): 98.9; Plant Height ([8]; 200 ppm): 9.20 cm
C[C@H]1CCN2C[C@@]34C[C@]5(CC(=O)N(C)C5=O)C(C)(C)[C@@H]3C[C@]12C(=O)N4C [Compound (2), asperparaline A]	100%	5		0	no effect	1	
O=S(=O)(CCC(F)=C(F)F)c1ncc(Cl)s1 [Fluensulfone, fluensulfone, reference compound]	0%	0					
Cc1ccsc1/C=C/C1=NCCCN1C [Morantel, morantel, reference compound]							Score (feeding degree of the gray mold) ([7]; 5 μg/cotton ball, 50 ppm): 5
CN1C(=O)[C@]23C[C@@H]4C(C)(C)[C@@]5(C[C@@]41CN2CC[C@@]3(C)O)C(=O)Nc1c5ccc2c1OC=CC(C)(C)O2 [Paraherquamide A, paraherquamide A, reference compound]			44				
